# Patent US4021563A, “Method of treating cardiac arrhythmia with γ-piperidino-butyrophenones” (priority 1975, dated 1977)
# Entries after “also recorded” stand apart in the source; their conditions may differ. Structures can show the parent of a compound that is named as a salt.
# Experiments:
# [1] = system: cardiac effects of catecholamines; conditions: Tuck 1973; Petersen 1974; cited from earlier work
# [2] = system: ouabain-induced arrhythmias; assay: ouabain-induced arrhythmia in conscious rabbits, prophylactic effect; type: in vivo, rabbit; conditions: for arrhythmogenic dose of ouabain increased to more than 110 %, number of rabbits: 1 minute before ouabain; for arrhythmogenic dose of ouabain in % of control arrhythmogenic dose, m ± SD: physiol. saline 96 ± 14; for antiarrhythmic activity compared with clinically used drugs: prophylactic and curative effect
# From the text: (§1) Thus, acid-addition salts formed by admixture of a γ-piperidino-butyrophenone base with an equivalent of an acid, suitably in a neutral solvent, are formed with such acids as sulfuric, phosphoric, hydrochloric, hydrobromic, citric, lactic, tartaric, acetic, and related acids. For purposes of this invention, the substituted γ-piperidino-butyrophenones are equivalent to their non-toxic acid-addition salts. The antiarrhythmic activity of the compounds of the present invention compared with that of some clinically used antiarrhythmic drugs was determined as follows.
# (§2) Intravenous infusion of ouabain to conscious rabbits produces ventricular arrhythmias of short duration. An increase in the minimal dose of ouabain required to produce an arrhythmia may be taken as a measure of the antiarrhythmic action of the drug.
# In all experiments with drug treatment the control dose of ouabain required to produce arrhythmias in an animal was obtained the day before.
# The test compound was administered intravenously to rabbits 1 minute before the ouabain challenge, and the arrhythmogenic dose of ouabain after treatment was evaluated in percent of the control arrhythmogenic dose. If this dose amounts to more the 110 % of the control arrhythmogenic dose recorded the day before, the test compound is regarded as having antiarrhymic activity.
# [3] = system: ouabain-induced arrhythmia; assay: ouabain-induced arrhythmia in conscious rabbits, curative effect (reversal); type: in vivo, rabbit; conditions: reversal at least 1 min within 10 minutes
# From the text: as §1, §2
# A substance was considered curative, if it was able to reverse the ouabain-induced arrhythmia for at least 1 min. within 10 minutes after the injection.
# [4] = system: ventricular extrasystoles (VES); assay: double-blind clinical test, ventricular extrasystoles in coronary care unit patients; type: in vivo, human patients
# Protocol: All patients with ventricular extrasystoles (VES) admitted to a coronary care unit suspected of having acute myocardial infarction are included in the investigation. This was carried out in a double-blind manner with metylperone against placebo (metylperone injectable without metylperone). When a patient arrives at the unit, they are monitored on an oscilloscope for registration of the electrocardiogram (ECG). In a 1 hour long period of observation the patient is characterized in respect to the type and the frequency of the arrhythmia. Depending on this and on the estimated age of the infarction, the patient is distributed to one of four groups. A bottle (metylperone or placebo) is chosen from a box, containing identical bottles, and in the following 10 minutes a total of 50 mg metylperone (or placebo) is injected intravenously as 5 injections with 2 min. intervals. The ECG registration is continued for 2 hours. All ECGes in the three hours period are analyzed manually and the arrhythmias are recorded according to frequency and type. The psychic status and the cardiovascular status are checked several times during the three hours.
# ventricular arrhythmia = assay: intravenous metylperone in patients with myocardial infarction, ventricular arrhythmia and side effects; type: in vivo, human patients
# From the text: Equi-antiarrhythmic doses of previously used drugs produce various cardiovascular side effects as well as agitation and confusion.
# [5] = toxic effects of active doses in antiarrhythmic tests
# From the text: as §1, with “follows. The compounds were tested for their ability to prevent and reverse ouabain-induced arrhythmias in conscious rabbits, and the method used was essentially according to Basil et al. (Brit. J. Pharmacol. 1974, 50, 323- 33).” for “follows.”
# tranquilizing effect = conditions: in vivo
# [6] = system: arrhythmia induced by aconitine; assay: aconitine-induced arrhythmia; type: in vivo; conditions: 0.1-10.0 mg/kg
# cardiac arrhythmia = conditions: cited from earlier work
# [7] = system: ouabain-induced ventricular tachycardia and fibrillation; conditions: anaesthetized guinea pigs, effective dosage; cited from earlier work
# [8] = system: arrhythmia induced by aconitine; conditions: in vivo; cited from earlier work
structure (smiles),measurement,setting,value
CN(C)CCCN1c2ccccc2Sc2ccc(Cl)cc21 [chlorpromazine],potentiation of catecholamines,[1],potentiation of catecholamines
"CC1CCN(CCCC(=O)c2ccc(F)cc2)CC1 [Metylperone, 4-fluoro-γ-(4-methyl-piperidino)-butyrophenone hydrochloride]",activity against ouabain-induced ventricular tachycardia in conscious rabbits,[2]; 0.1 mg/kg,extremely active
same,"arrhythmogenic dose of ouabain increased to more than 110 %, number of rabbits","[2]; 0.1 mg/kg i.v., 4 rabbits",3 number of rabbits
same,"arrhythmogenic dose of ouabain in % of control arrhythmogenic dose, m ± SD",[2]; 0.1 mg/kg i.v.,129 ± 20 % of control arrhythmogenic do
same,antiarrhythmic activity compared with clinically used drugs,"[2]; 0.1 mg/kg i.v., hydrochloride","more effective than lidocaine 1-5 mg/kg, procainamide 1- 10 mg/kg, quinidine 1 mg/kg, and propranolol 0.5 mg/kg; also recorded: equiactive (i.e., equally active) with quinidine 10 mg/kg, and propranolol 2 mg/kg"
same,"arrhythmogenic dose of ouabain increased to more than 110 %, number of rabbits","[2]; 1.0 mg/kg i.v., 4 rabbits",3 number of rabbits
same,"arrhythmogenic dose of ouabain in % of control arrhythmogenic dose, m ± SD",[2]; 1.0 mg/kg i.v.,126 ± 30 % of control arrhythmogenic do
same,"curative effect, number of rabbits reversed/tested",[3]; 0.1 mg/kg i.v.,5/5
same,"curative effect, number of rabbits reversed/tested",[3]; 1.0 mg/kg i.v.,5/5
same,antiarrhythmic effect in patients with acute myocardial infarction,[4]; 50 mg i.v.,has an antiarrhythmic effect in patients with acute myocardial infarction
same,"mean total VES ± SD, 0 - 60 min. after inj.","[4]; AMI patients, N = 6, 50 mg i.v., placebo 418 ± 394",212 ± 138
same,"mean total VES ± SD, 61 - 120 min. after inj.","[4]; AMI patients, N = 6, 50 mg i.v., placebo 644 ± 815",93 ± 89
same,"mean total VES ± SD, control hour","[4]; AMI patients, N = 6, before injection (baseline)",372 ± 148
same,"mean total VES ± SD, 0 - 60 min. after inj.","[4]; not AMI patients, N = 2, 50 mg i.v., placebo 643 ± 290",251 ± 85
same,"mean total VES ± SD, 61 - 120 min. after inj.","[4]; not AMI patients, N = 2, 50 mg i.v., placebo 695 ± 240",348 ± 28
same,"mean total VES ± SD, control hour","[4]; not AMI patients, N = 2, before injection (baseline)",321 ± 18
same,side effects during treatment of cardiac arrhythmia,"ventricular arrhythmia; human, in vivo",lack of side effects
same,side effects in patients,"ventricular arrhythmia; human, in vivo, iv",without producing side effects
same,inhibition of ventricular arrhythmia in patients with myocardial infarction,ventricular arrhythmia; intravenous injection 10-50 mg,inhibit ventricular arrhythmia in patients with myocardial infarction
same,toxic effects of the active doses,[5]; in vivo,In contrast to metylperone and FG 5226 the active doses of the known antiarrhythmic drugs produced various toxic effects
same,tranquilizing effect,tranquilizing effect,has a tranquilizing effect
same,aconitine inhibitory effect,[6],no aconitine inhibitory effect
same,potentiation of catecholamines,[1],does not potentiate the cardiac effects of catecholamines
"CCN(CC)CCNC(=O)c1ccc(N)cc1 [Procainamide, procainamide]","arrhythmogenic dose of ouabain increased to more than 110 %, number of rabbits","[2]; 1.0 mg/kg i.v., 4 rabbits",2 number of rabbits
same,"arrhythmogenic dose of ouabain in % of control arrhythmogenic dose, m ± SD",[2]; 1.0 mg/kg i.v.,111 ± 18 % of control arrhythmogenic do
same,"arrhythmogenic dose of ouabain increased to more than 110 %, number of rabbits","[2]; 10.0 mg/kg i.v., 4 rabbits",1 number of rabbits
same,"arrhythmogenic dose of ouabain in % of control arrhythmogenic dose, m ± SD",[2]; 10.0 mg/kg i.v.,104 ± 20 % of control arrhythmogenic do
same,"curative effect, number of rabbits reversed/tested",[3]; 1.0 mg/kg i.v.,0/4
same,"curative effect, number of rabbits reversed/tested",[3]; 10.0 mg/kg i.v.,2/4
same,antiarrhythmic properties / activity of prior art compounds,cardiac arrhythmia,activity as antiarrhythmic agents
same,toxic effects of prior art antiarrhythmic drugs,cardiac arrhythmia,various toxic effects
"CCN(CC)CC(=O)Nc1c(C)cccc1C [Lidocaine, lidocaine]","arrhythmogenic dose of ouabain increased to more than 110 %, number of rabbits","[2]; 1.0 mg/kg i.v., 4 rabbits",0 number of rabbits
same,"arrhythmogenic dose of ouabain in % of control arrhythmogenic dose, m ± SD",[2]; 1.0 mg/kg i.v.,73 ± 25 % of control arrhythmogenic do
same,"arrhythmogenic dose of ouabain increased to more than 110 %, number of rabbits","[2]; 5.0 mg/kg i.v., 5 rabbits",0 number of rabbits
same,"arrhythmogenic dose of ouabain in % of control arrhythmogenic dose, m ± SD",[2]; 5.0 mg/kg i.v.,91 ± 21 % of control arrhythmogenic do
same,"curative effect, number of rabbits reversed/tested",[3]; 1.0 mg/kg i.v.,1/3
same,"curative effect, number of rabbits reversed/tested",[3]; 5.0 mg/kg i.v.,2/4
"CC(C)NCC(O)COc1cccc2ccccc12 (stereo not shown) [Propranolol, propranolol]","arrhythmogenic dose of ouabain increased to more than 110 %, number of rabbits","[2]; 0.5 mg/kg i.v., 4 rabbits",2 number of rabbits
same,"arrhythmogenic dose of ouabain in % of control arrhythmogenic dose, m ± SD",[2]; 0.5 mg/kg i.v.,98 ± 28 % of control arrhythmogenic do
same,"arrhythmogenic dose of ouabain increased to more than 110 %, number of rabbits","[2]; 2.0 mg/kg i.v., 4 rabbits",3 number of rabbits
same,"arrhythmogenic dose of ouabain in % of control arrhythmogenic dose, m ± SD",[2]; 2.0 mg/kg i.v.,121 ± 26 % of control arrhythmogenic do
same,"curative effect, number of rabbits reversed/tested",[3]; 0.5 mg/kg i.v.,1/5
same,"curative effect, number of rabbits reversed/tested",[3]; 2.0 mg/kg i.v.,4/4
same,antiarrhythmic properties / activity of prior art compounds,cardiac arrhythmia,activity as antiarrhythmic agents
same,toxic effects of prior art antiarrhythmic drugs,cardiac arrhythmia,various toxic effects
"C=C[C@H]1C[N@@]2CC[C@H]1C[C@@H]2[C@@H](O)c1ccnc2ccc(OC)cc12 [Quinidine, quinidine]","arrhythmogenic dose of ouabain increased to more than 110 %, number of rabbits","[2]; 1.0 mg/kg i.v., 4 rabbits",2 number of rabbits
same,"arrhythmogenic dose of ouabain in % of control arrhythmogenic dose, m ± SD",[2]; 1.0 mg/kg i.v.,104 ± 10 % of control arrhythmogenic do
same,"arrhythmogenic dose of ouabain increased to more than 110 %, number of rabbits","[2]; 10.0 mg/kg i.v., 4 rabbits",3 number of rabbits
same,"arrhythmogenic dose of ouabain in % of control arrhythmogenic dose, m ± SD",[2]; 10.0 mg/kg i.v.,131 ± 42 % of control arrhythmogenic do
same,"curative effect, number of rabbits reversed/tested",[3]; 1.0 mg/kg i.v.,2/4
same,"curative effect, number of rabbits reversed/tested",[3]; 10.0 mg/kg i.v.,4/4
same,antiarrhythmic properties / activity of prior art compounds,cardiac arrhythmia,activity as antiarrhythmic agents
same,toxic effects of prior art antiarrhythmic drugs,cardiac arrhythmia,various toxic effects
"CCCC1(CC)CCN(CCCC(=O)c2ccc(F)cc2)CC1 [FG 5226, 4-fluoro-γ-(4-ethyl-4-n-propyl-piperidino)-butyrophenone]","arrhythmogenic dose of ouabain increased to more than 110 %, number of rabbits","[2]; 0.1 mg/kg i.v., 4 rabbits",3 number of rabbits
same,"arrhythmogenic dose of ouabain in % of control arrhythmogenic dose, m ± SD",[2]; 0.1 mg/kg i.v.,109 ± 21 % of control arrhythmogenic do
same,antiarrhythmic activity compared with clinically used drugs,[2]; 0.1 mg/kg i.v.,"more effective than lidocaine 1-5 mg/kg, procainamide 1- 10 mg/kg, quinidine 1 mg/kg, and propranolol 0.5 mg/kg; also recorded: equiactive (i.e., equally active) with quinidine 10 mg/kg, and propranolol 2 mg/kg"
same,"arrhythmogenic dose of ouabain increased to more than 110 %, number of rabbits","[2]; 1.0 mg/kg i.v., 4 rabbits",1 number of rabbits
same,"arrhythmogenic dose of ouabain in % of control arrhythmogenic dose, m ± SD",[2]; 1.0 mg/kg i.v.,93 ± 18 % of control arrhythmogenic do
same,"curative effect, number of rabbits reversed/tested",[3]; 0.1 mg/kg i.v.,3/4
same,"curative effect, number of rabbits reversed/tested",[3]; 1.0 mg/kg i.v.,2/4
same,toxic effects of the active doses,[5]; active antiarrhythmic doses,In contrast to metylperone and FG 5226 the active doses of the known antiarrhythmic drugs produced various toxic effects
NC(=O)OC1CCN(CCCC(=O)c2ccc(F)cc2)C2CCCCC12 (stereo not shown) [L 7810],antagonism of ouabain-induced ventricular tachycardia and fibrillation,[7],0.3 to 3 mg/kg
same,inhibition of arrhythmia induced by aconitine,[8],inhibit arrhythmia induced by aconitine
same,antiarrhythmic properties / activity of prior art compounds,cardiac arrhythmia,exert antiarrhythmic properties
